From publication PMC12072072 (International Journal of Molecular Sciences, 2025)

Key:
[1] = tested on: SKOV-3 (human ovarian carcinoma); conditions: MTT assay, SKOV-3 cells; published earlier; ref [41]; read-out: IC50 [μM] (±s) SKOV-3; cited from earlier work
[2] = tested on: CHO (Chinese hamster ovary); test: MTT assay, CHO cells; type: cell-based; conditions: Cricetulus griseus, CHO, MTT assay, CHO cells, value (standard deviation); read-out: IC50 [μM] (±s) CHO
Procedure: Each medium was supplemented with 10% fetal bovine serum, 1% L-glutamine, and 1% penicillin/streptomycin solution. The cell lines were incubated at 37 °C in a humidified atmosphere containing 5% CO2. Cells were counted using the Fuchs–Rosenthal counting chamber (hemocytometer) with modifications.
The final product of this reaction gives violet formazan crystals. The number of live cells is proportional to the amount of formazan and is represented by the violet dye reagent. The details of the experiments are given, e.g., in [54].
Statistical analyses for the cytotoxic activity were carried out using the nonparametric Kruskal–Wallis H test for unpaired data and ANOVA Friedman two-way analysis of variance test for paired data. Statistical significance was tested using Dunn’s post-hoc test. The IC50 values compared to the control IC50 were calculated using GraphPad Prism v. 10.1.1. software.

[3] = tested on: HDFs (human dermal fibroblasts); conditions: MTT assay, published earlier, ref [41], read-out: IC50 [μM] (±s) HDFs; cited from earlier work

Question: For CC1(C)CC[C@]2(C(=O)O)CC[C@]3(C)C(=CC[C@@H]4[C@@]5(C)CC[C@H](O)C(C)(C)[C@@H]5CC[C@]43C)[C@@H]2C1 [Compound 1, oleanolic acid], which IC50 [1] is on record?
Answer: 18.8 µM

Question: And the IC50 [2]?
Answer: 9.16 µM

Question: And the IC50 [3]?
Answer: 24.9 µM
